According to ChEMBL document CHEMBL2074431, “The novel anticancer drug KRN5500 interacts with, but is hardly transported by, human P-glycoprotein” (Jpn J Cancer Res, 2000):

Target: ATP-dependent translocase ABCB1 (Homo sapiens, UniProt P08183)
Assay: TP_TRANSPORTER: inhibition of Azidopine photoaffinity labelling (Azidopine: 0.4 uM, KRN5500: 400 uM) in membrane fraction from MDR1-expressing LLC-PK1 cell
Format: functional, cell membranes
Details: pig, llc-pk1, 400 µM

ATP-dependent translocase ABCB1, sequence (P08183 whole entry): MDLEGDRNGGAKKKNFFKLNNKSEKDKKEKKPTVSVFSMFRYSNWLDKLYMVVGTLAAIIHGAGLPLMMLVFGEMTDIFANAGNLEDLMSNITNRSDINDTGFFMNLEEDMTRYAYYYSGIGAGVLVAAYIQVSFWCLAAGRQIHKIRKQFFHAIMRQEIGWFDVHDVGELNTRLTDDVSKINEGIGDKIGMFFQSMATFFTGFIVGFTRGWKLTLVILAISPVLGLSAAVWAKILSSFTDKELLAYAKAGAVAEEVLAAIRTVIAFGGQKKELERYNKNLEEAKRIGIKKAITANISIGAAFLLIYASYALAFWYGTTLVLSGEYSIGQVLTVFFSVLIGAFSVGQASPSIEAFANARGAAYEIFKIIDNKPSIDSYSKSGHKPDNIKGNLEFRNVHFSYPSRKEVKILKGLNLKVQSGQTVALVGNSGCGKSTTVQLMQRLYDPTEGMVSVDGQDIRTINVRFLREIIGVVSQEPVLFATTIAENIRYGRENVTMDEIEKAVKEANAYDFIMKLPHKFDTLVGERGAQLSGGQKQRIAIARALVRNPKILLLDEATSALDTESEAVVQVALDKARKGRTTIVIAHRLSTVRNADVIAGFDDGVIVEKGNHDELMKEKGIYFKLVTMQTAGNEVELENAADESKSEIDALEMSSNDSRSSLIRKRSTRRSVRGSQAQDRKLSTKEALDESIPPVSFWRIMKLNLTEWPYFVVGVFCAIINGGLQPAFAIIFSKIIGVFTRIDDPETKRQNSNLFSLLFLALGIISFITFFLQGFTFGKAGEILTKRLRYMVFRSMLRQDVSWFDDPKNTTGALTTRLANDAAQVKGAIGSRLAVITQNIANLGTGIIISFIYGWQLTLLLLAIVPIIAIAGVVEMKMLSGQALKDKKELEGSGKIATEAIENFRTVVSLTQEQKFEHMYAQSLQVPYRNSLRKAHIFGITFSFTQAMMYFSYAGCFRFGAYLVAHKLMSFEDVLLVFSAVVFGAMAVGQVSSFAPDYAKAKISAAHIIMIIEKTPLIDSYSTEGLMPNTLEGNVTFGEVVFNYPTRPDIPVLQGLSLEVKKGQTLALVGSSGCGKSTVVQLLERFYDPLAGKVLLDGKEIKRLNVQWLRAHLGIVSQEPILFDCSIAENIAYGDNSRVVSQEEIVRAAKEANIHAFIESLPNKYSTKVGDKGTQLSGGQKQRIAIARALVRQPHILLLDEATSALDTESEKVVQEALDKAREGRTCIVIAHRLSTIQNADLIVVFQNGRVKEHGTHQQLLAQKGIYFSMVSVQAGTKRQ

CCCCCCCCC/C=C/C=C/C(=O)NCC(=O)N[C@@H]1[C@@H](O)[C@@H](O)[C@@H](Nc2ncnc3[nH]cnc23)O[C@H]1[C@@H](O)CO
Activity: inhibitor [+]
